Bridges are numbered along the chain shown (N, C = ends). Roman numbers before positions name the chains, in order. Where no end group is shown, it is not given here.

The test system of assay [1] is Anti-C5/gp41 sera from BI400-B immunized rabbits. Description: Competitive ELISA for rabbit sera after immunization with BI400-B. The assay is classed as binding. The following applies: for Inhibition of binding of rabbit sera to C5/gp41 (015/201): competitor preincubated with serum, 10-1000 μM. On the procedure:
50-100 μl of a mixture of BI400-015 and -201 (pre-incubated in Coating buffer—0.05M Na2CO3 pH9.6; denoted CB—in cold at 16 μg/ml for each peptide 1-3 days prior to coating) or just CB (background control) was used for coating wells in microtiter plates at 4° C. overnight. Plates were then washed 3x with washing buffer (PBS+1% v/v Triton-X100; denoted WB), followed by 2 h blocking at room temperature (RT) with 200 μl/well of blocking buffer (PBS+1% w/v BSA). Plates were then washed 3x with WB, followed by 1 h incubation at 37° C. with 60-100 μl/well of added rabbit serum samples (diluted 1:10-1:250 final concentration) preincubated together (4° C. overnight) with serial dilutions (ranging from 10-1000 μM final concentration) of 400-SEQ.B, BI400-015, BI400-201, BI400-204d, recombinant gp41 (Shin-Won Scientific, SWO 102 gp41), BI301-23 (irrelevant protein; control), no peptide (i.e. PBS; control), LTNP-sera pools (diluted 1:10 final concentration), or Blood donor sera-pools (diluted 1:10 final concentration; control). Plates were then washed 6x with WB, followed by 1 h incubation at RT with 70 μl/well of Alkaline Phosphatase-conjugated Goat-anti-Rabbit-Ig (6 μg/ml; Dako D0487). Plates were then washed 6x with WB, followed by 10-60 min incubation at RT with 100 μl/well of 0.3% w/v of Phenoftalein monophosphate (Sigma P-5758). Plates were finally quenched by adding 100 μl/well of Quench solution (0.1M TRIS+0.1M EDTA+0.5M NaOH+0.01% w/v NaN3; pH14), followed by ELISA reader (ASYS UVM 340) at 550 nm.

The subject of assay [2] is pooled human sera from HIV chronically infected individuals, LTNP and non-infected blood donors. In words: Seroreactivity of pooled human sera to peptide-coated magnetic particles (general ELISA principle). The assay is classed as binding. The following applies: peptide 600 μg/ml alone or 300 μg/ml each in combination; positivity determined visually. On the procedure: Seroreactivity to SEQ ID NO: 1 alone or in combination with SEQ ID NOs. 6 (with the sequence […]), 8 and 9 was determined according to a general ELISA principle either using magnetic particles as a solid support or attachment of peptides to a 96-well tray.
In the system described below, peptide was coated on to magnetic particles using generally accepted techniques. 300 μg was coated onto particles for all peptides with the exception of SEQ1 where 600 μg was used. SEQ ID NO: 1 (from C5) and SEQ ID NO: 6, 8 and 9 (from gp41) were preincubated overnight at 4 degrees C. to allow interactions to form between between C5 and gp41 sequences respectively and all combined. Sera were then incubated with the peptide coated beads according to established protocols. Visualisation of antibody binding to C5 peptides was achieved using protein G that can bind immunoglobulins from different species coupled to alkaline phosphatase. The positive control was commercially available serum from a sheep immunised with the C5 derived sequence […] (SEQ ID NO: 1).
Pooled sera from 25 LTNP were tested for seroreactivity to SEQ ID NO: 1 alone and SEQ ID NO: 1 when in combination with SEQ ID NOs: 6 ([…]), 8 and 9 respectively and all combined. Pooled sera were also tested from 12 HIV positive, chronically infected individuals and 20 sera from blood donors.

In assay [3] the test system is C5/gp41 (015/201). Description: Rabbit immunization with BI400-B vaccine, serum ELISA. In kind it is in vivo, New Zealand White female rabbits. The note with it: 500 μg intradermally weeks 0, 2, 6 in Freund's adjuvant; in the presence of PBS. On the procedure:
New Zealand White female rabbits (n=3) were immunized intradermally at weeks 0, 2 & 6 with 1 ml of BI400-B vaccine consisting of 500 μg BI400-B in 50% V/V Freund's adjuvant (i.e. Complete Freund's adjuvant used for priming, followed by boostings with Incomplete Freund's adjuvant). Individual blood serum was isolated for ELISA.
50-100 μl of a mixture of BI400-015 and -201 (pre-incubated in Coating buffer—0.05M Na2CO3 pH9.6; denoted CB—in cold at 16 μg/ml for each peptide 1-3 days prior to coating) or just CB (background control) was used for coating wells in microtiter plates at 4° C. overnight. Plates were then washed 3x with washing buffer (PBS+1% v/v Triton-X100; denoted WB), followed by 2 h blocking at room temperature (RT) with 200 μl/well of blocking buffer (PBS+1% w/v BSA). […] Plates were finally quenched by adding 100 μl/well of Quench solution (0.1M TRIS+0.1M EDTA+0.5M NaOH+0.01% w/v NaN3; pH14), followed by ELISA reader (ASYS UVM 340) at 550 nm.

For assay [4], the system named is latently infected cell lines and primary T cells. The note with it: cited from earlier work.
The test system of assay [5] is HIV-specific T-cells. The note with it: dendritic cells presenting Gag- or Nef-specific peptides; cited from earlier work.

For the compound GGAIVNGSLADDDIVI [SEQ ID NO: 37], in assay [1], the “Inhibition of binding of rabbit sera to C5/gp41 (015/201)” value (shortened to “Inhibition of binding of rabbit sera”) is reported as “could be inhibited”.

APTKAKRRVVQREKR [SEQ ID NO: 1]: the “Inhibition of binding of rabbit sera” value in assay [1] was “could be inhibited”. Further, the “Seroreactivity, Blood-donors pool” value in assay [2] is “=”.

Turning to “BI400-B: SEQ ID NO: 38 and SEQ ID NO: 39 linked via Cys and Lys residues (chain 1 GAKRRVVGGCGGAKRRVVQREKRAGEREKRA; chain 2 GKGGIEEEGGRDRDRGGEQDRDR; bridge I:10-II:2 (inferred))”, the “Inhibition of binding of rabbit sera” value in assay [1] is on record as “could be inhibited”. Moreover, in assay [1] (sera pools diluted 1:10), the “Competition of anti-C5/gp41 rabbit sera by human sera pools” value was “competitively inhibited by LTNP-sera pools, but not with BD control sera”. The “Binding of sera from immunized rabbits to C5/gp41 peptides” value in assay [3] is on record as “bound to peptides corresponding to C5/gp41 (015/201)”.

As for “DRPEGIEEEGGERDR (Glu can be Gly; Gly can be Arg; Arg can be Gln; Asp can be Gly; Arg can be Lys) [SEQ ID NO: 6]”, in assay [1], the “Inhibition of binding of rabbit sera” value was “could be inhibited”.

`C/C=C1\NC(=O)[C@H]2CSSCC/C=C/[C@H](CC(=O)N[C@H](C(C)C)C(=O)N2)OC(=O)[C@H](C(C)C)NC1=O` [romidepsin, (1S,4S,7Z,10S,16E,21R)-7-ethylidene-4,21-bis(1-methylethyl)-2-oxa-12,13-dithia-5,8,20,23-tetraazabicyclo[8.7.6] tricos-16-ene-3,6,9,19,22-pentone]: the “Activation of HIV-1 expression” value in assay [4] is “potently activates HIV-1 expression”.

In the case of `Nc1cccc2c1C(=O)N(C1CCC(=O)NC1=O)C2=O` (stereo not shown) [pomalidomide], the “Function of T-cells after in vitro stimulation in presence of IMiDs” value in assay [5] is reported as “a number of improvements in the function of the T-cells”.

`Nc1cccc2c1CN(C1CCC(=O)NC1=O)C2=O` (stereo not shown) [Lenalidomide]: the “Function of T-cells after in vitro stimulation in presence of IMiDs” value in assay [5] was “a number of improvements in the function of the T-cells”.

These data come from patent US10143737B2, “Method for the vaccination against HIV” (Bionor Immuno AS, priority 2014, dated 2018).
